According to US20230203060A1 (GENFLEET THERAPEUTICS (SHANGHAI) INC., priority 2020, published 2023):

What was measured:
[1] = test system: phosphorylated ERK downstream of KRAS G12C in MIA PaCa2 cells; assay: Cell p-ERK detection experiment (HTRF) in MIA PaCa2; assay type: cell-based, human; settings: Homo sapiens, MIA PaCa-2, 2 h, MIA PaCa2 cells, 2 hours with compound, Advance ERK phospho-T202/Y204 HTRF kit; read-out: p-ERK IC50
Outline: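 Phospho-ERK (T202/Y204) measured by HTRF after 30 min lysis and 4 h antibody incubation in MIA PaCa2 (KRAS G12C) cells, seeded at 2.5E4 per well and treated 2 h with compounds in 3.16-fold steps, final DMSO 0.1%. IC50 from a four-parameter fit of percent inhibition relative to DMSO and blank wells.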

[2] = test system: A549 cells (KRAS G12S mutant); assay: Cell proliferation inhibition experiment, 3D spheroid, CellTiter-Glo, A549; assay type: cell-based, human; settings: Homo sapiens, A549, 120 h, A549 (KRAS G12S mutant) 3D spheroid, 5 days with compound, CellTiter-Glo; read-out: A549 IC50
Outline: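 IC50 values come from four-parameter fits of proliferation inhibition, measured by CellTiter-Glo after 5-day compound exposure. Spheroids of H358 (800 cells) or A549 (400 cells) were formed overnight in 2% FBS medium; DMSO held at 0.1%, doses spaced 3.16-fold.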

Compound | IC50 [1] [nM] | IC50 [2] [nM]
C=CC(=O)N1CCN2C(=O)c3c(N4CC(C(=O)O)CC4(C)C)nc(-c4c(O)cccc4F)c(Cl)c3OC[C@H]2C1 (stereo partly drawn) [Z458, 1-((6aR)-8-acryloyl-4-chloro-3-(2-fluoro-6-hydroxyphenyl)-12-oxo-6,6a,7,8,9,10-hexahydro-12H-pyrazino[2,1-c]pyrido[3,4-f][1,4]oxazepin-1-yl)-5,5-dimethylpyrrolidine-3-carboxylic acid] | 6520 | > 30000
C=CC(=O)N1CCN2C(=O)c3c(N4C[C@H](N5CC(F)(F)C5)CC4(C)C)nc(-c4ccccc4F)c(Cl)c3OC[C@H]2C1 (single isomer, unassigned) [Z525-1] | 1280 | 2840
C=CC(=O)N1CCN2C(=O)c3c(N4CCCC45CC5)nc(-c4c(O)cccc4F)c(Cl)c3OC[C@H]2C1 [Z56, (6aR)-8-acryloyl-4-chloro-3-(2-fluoro-6-hydroxyphenyl)-1-(4-azaspiro[2.4]heptan-4-yl)-6,6a,7,8,9,10-hexahydro-12H-pyrazino[2,1-c]pyrido[3,4-f][1,4]oxazepin-12-one] | 129 | > 7000
C=CC(=O)N1CCN2C(=O)c3c(N4C[C@H](N5CCN(C)CC5)CC4(C)C)nc(-c4ccccc4F)c(Cl)c3OC[C@H]2C1 (single isomer, unassigned) [Z454-2] | 67 | 2660
C=CC(=O)N1CCN2C(=O)c3c(N4C[C@@H](N5CCC5)CC4(C)C)nc(-c4ccccc4F)c(Cl)c3OC[C@H]2C1 (single isomer, unassigned) [Z471-1] | 188 | 2770
C=CC(=O)N1CCN2C(=O)c3c(N4C[C@H](N(C)CCO)CC4(C)C)nc(-c4ccccc4F)c(Cl)c3OC[C@H]2C1 (single isomer, unassigned) [Z658-2] | 180 | 4720
C=CC(=O)N1CCN2C(=O)c3c(N4CC(O)CC4(C)C)nc(-c4ccccc4Cl)c(F)c3OC[C@H]2C1 (stereo partly drawn) [Z414-1, (6aR)-8-acryloyl-3-(2-chlorophenyl)-4-fluoro-1-(4-hydroxy-2,2-dimethylpyrrolidin-1-yl)-6,6a,7,8,9,10-hexahydro-12H-pyrazino[2,1-c]pyrido[3,4-f][1,4]oxazepin-12-one] | 103 | 8890
C=CC(=O)N1CCN2C(=O)c3c(N4CCC5CC54)nc(-c4c(O)cccc4F)c(Cl)c3OC[C@H]2C1 (stereo partly drawn) [Z39, (6aR)-8-acryloyl-1-(2-azabicyclo[3.1.0]hexart-2-yl)-4-chloro-3-(2-fluoro-6-hydroxyphenyl)-6,6a,7,8,9,10-hexahydro-12H-pyrazino[2,1-c]pyrido[3,4-f][1,4]oxazepin-12-one] | 140 | 3050
C=CC(=O)N1CCN2C(=O)c3c(N4CCC[C@@H]4C)nc(-c4c(O)cccc4F)c(Cl)c3OC[C@H]2C1 [Z49, (6aR)-8-acryloyl-1-((S)-2-methylpyrrolidin-1-yl)-4-chloro-3-(2-fluoro-6-hydroxyphenyl)-6,6a,7,8,9,10-hexahydro-12H-pyrazino[2,1-c]pyrido[3,4-f][1,4]oxazepin-12-one] | 62 | > 5000
C=CC(=O)N1CCN2C(=O)c3c(N4CC(N(C)CCO)CC4(C)C)nc(-c4ccccc4F)c(Cl)c3OC[C@H]2C1 (stereo partly drawn) [Z658, (6aR)-8-acryloyl-4-chloro-3-(2-fluorophenyl)-1-(4-((2-hydroxyethyl)(methyl)amino)-2,2-dimethylpyrrolidin-1-yl)-6,6a,7,8,9,10-hexahydro-12H-pyrazino[2,1-c]pyrido[3,4-f][1,4]oxazepin-12-one] | 24 | 5020
C=CC(=O)N1CCN2C(=O)c3c(N4C[C@@H](N(C)C)CC4(C)C)nc(-c4ccccc4F)c(Cl)c3OC[C@H]2C1 [Z453-1, (R)-8-acryloyl-4-chloro-1-((S)-4-(dimethylamino)-2,2-dimethylpyrrolidin-1-yl)-3-(2-fluorophenyl)-6,6a,7,8,9,10-hexahydro-12H-pyrazino[2,1-c]pyrido[3,4-f][1,4]oxazepin-12-one] | 116 | 3340
C=CC(=O)N1CCN2C(=O)c3c(N4C[C@@H](N5CC(F)(F)C5)CC4(C)C)nc(-c4ccccc4F)c(Cl)c3OC[C@H]2C1 (single isomer, unassigned) [Z525-2] | 226 | 5740
C=CC(=O)N1CCN2C(=O)c3c(N4CCN(C)C[C@@H]4C)nc(-c4c(N)cccc4F)c(Cl)c3OC[C@H]2C1 [Z503, (6aR)-8-acryloyl-3-(2-amino-6-fluorophenyl)-4-chloro-1-((S)-2,4-dimethylpiperazin-1-yl)-6,6a,7,8,9,10-hexahydro-12H-pyrazino[2,1-c]pyrido[3,4-f][1,4]oxazepin-12-one] | 42 | 
C=CC(=O)N1CCN2C(=O)c3c(N4C[C@@H](N5CC(OC)C5)CC4(C)C)nc(-c4ccccc4F)c(Cl)c3OC[C@H]2C1 [Z479-1, (R)-8-acryloyl-4-chloro-3-(2-fluorophenyl)-1-((S)-4-(3-methoxyazetidin-1-yl)-2,2-dimethylpyrrolidin-1-yl)-6,6a,7,8,9,10-hexahydro-12H-pyrazino[2,1-c]pyrido[3,4-f][1,4]oxazepin-12-one] | 30 | 
C=CC(=O)N1CCN2C(=O)c3c(N4CC[C@@H](N(C)C)C4(C)C)nc(-c4ccccc4F)c(Cl)c3OC[C@H]2C1 [Z502-1, (6aR)-8-acryloyl-4-chloro-1-(3-(dimethylamino)-2,2-dimethylpyrrolidin-1-yl)-3-(2-fluorophenyl)-6,6a,7,8,9,10-hexahydro-12H-pyrazino[2,1-c]pyrido[3,4-f][1,4]oxazepin-12(6aH)-one] | 196 | 
C=CC(=O)N1CCN2C(=O)c3c(N[C@H](C)c4ccccc4)nc(-c4c(O)cccc4F)c(Cl)c3OC[C@H]2C1 [Z28, (6aR)-8-acryloyl-4-chloro-3-(2-fluoro-6-hydroxyphenyl)-1-(((R)-1-phenylethyl)amino)-6,6a,7,8,9,10-hexahydro-12H-pyrazino[2,1-c]pyrido[3,4-f][1,4]oxazepin-12-one] |  | > 5000
C=CC(=O)N1CCN2C(=O)c3c(N4CCN(C)[C@@H](C)[C@H]4C)nc(-c4ccccc4F)c(Cl)c3OC[C@H]2C1 (single isomer, unassigned) [Z465-1] | 137 | 
C=CC(=O)N1CCN2C(=O)c3c(N4CC(N5CCN(C)CC5)CC4(C)C)nc(-c4c(O)cccc4F)c(Cl)c3OC[C@H]2C1 (stereo partly drawn) [Z467, (6aR)-8-acryloyl-4-chloro-1-(2,2-dimethyl-4-(4-methylpiperazin-1-yl)pyrrolidin-1-yl)-3-(2-fluoro-6-hydroxyphenyl)-6,6a,7,8,9,10-hexahydro-12H-pyrazino[2,1-c]pyrido[3,4-f][1,4]oxazepin-12-one] | 11 | 
C=CC(=O)N1CCN2C(=O)c3c(N4CC(N(C)C)CC4(C)C)nc(-c4cccc(F)c4F)c(Cl)c3OC[C@H]2C1 (single isomer, unassigned) [Z473-2] | 161 | 
C=CC(=O)N1CCN2C(=O)c3c(N4CCN(C(=O)CC)C[C@@H]4C)nc(-c4ccccc4F)c(Cl)c3OC[C@H]2C1 [Z477, (R)-8-acryloyl-4-chloro-3-(2-fluorophenyl)-1-((S)-2-methyl-4-propionylpiperazin-1-yl)-6,6a,7,8,9,10-hexahydro-12H-pyrazino[2,1-c]pyrido[3,4-f][1,4]oxazepin-12(6aH)-one] | 61 | 
C=CC(=O)N1CCN2C(=O)c3c(N4CCC[C@H]4C)nc(-c4c(O)cccc4F)c(Cl)c3OC[C@H]2C1 [Z48, (6aR)-8-acryloyl-1-((R)-2-methylpyrrolidin-1-yl)-4-chloro-3-(2-fluoro-6-hydroxyphenyl)-6,6a,7,8,9,10-hexahydro-12H-pyrazino[2,1-c]pyrido[3,4-f][1,4]oxazepin-12-one] |  | > 5000
C=CC(=O)N1CCN2C(=O)c3c(N4C[C@@H](O)CC4(C)C)nc(-c4c(N)cccc4F)c(F)c3OC[C@H]2C1 [Z481, (6aR)-8-acryloyl-3-(2-amino-6-fluorophenyl)-4-fluoro-1-((S)-4-hydroxy-2,2-dimethylpyrrolidin-1-yl)-6,6a,7,8,9,10-hexahydro-12H-pyrazino[2,1-c]pyrido[3,4-f][1,4]oxazepin-12-one] | 13 | 
C=CC(=O)N1CCN2C(=O)c3c(OC4CCCN(C)C4)nc(-c4c(O)cccc4F)c(Cl)c3OC[C@H]2C1 (stereo partly drawn) [Z43, (6aR)-8-acryloyl-4-chloro-3-(2-fluoro-6-hydroxyphenyl)-1-((1-methylpiperidin-3-yl)oxy)-6,6a,7,8,9,10-hexahydro-12H-pyrazino[2,1-c]pyrido[3,4-f][1,4]oxazepin-12-one] |  | > 30000
C=CC(=O)N1CCN2C(=O)c3c(N4C[C@@H](C)N(C)C[C@@H]4C)nc(-c4ccccc4F)c(Cl)c3OC[C@H]2C1 [Z464] | 523 | 
C=CC(=O)N1CCN2C(=O)c3c(N4C[C@@H](N(C)C)CC4(C)C)nc(-c4cccc(F)c4F)c(Cl)c3OC[C@H]2C1 [Z473-1, (R)-8-acryloyl-4-chloro-3-(2,3-difluorophenyl)-1-((S)-4-(dimethylamino)-2,2-dimethylpyrrolidin-1-yl)-6,6a,7,8,9,10-hexahydro-12H-pyrazino[2,1-c]pyrido[3,4-f][1,4]oxazepin-12-one] | 151 | 
C=CC(=O)N1CCN2C(=O)c3c(N4C[C@H](N5CCC5)CC4(C)C)nc(-c4ccccc4F)c(Cl)c3OC[C@H]2C1 (single isomer, unassigned) [Z471-2] | 1080 | 
C=CC(=O)N1CCN2C(=O)c3c(N4C[C@H](N5CCN(C)CC5)C[C@@H]4C)nc(-c4ccccc4F)c(Cl)c3OC[C@H]2C1 [Z470-1] | 255 | 
